≈ marks a conversion by molar mass, not a printed value. Calls of active or inactive are those of the source. The rule behind the calls is not given here. Bounds are passed on as bounds.

Series [1] has as its system Staphylococcus aureus. In words: Antibacterial activity against methicillin-susceptible Staphylococcus aureus ATCC 29213 in peritoneal dialysis fluid at 10 ug/mL administered as bolus dose 2 hrs after infection measured after 24 hrs by time-kill study. The class given is functional, organism-based.
Series [2] in a line: Protein binding in mouse plasma at 0.1 to 100 ug/mL by equilibrium dialysis. The class given is ADME, cell-free. The conditions noted are these: read-out: PB (converted). (In general: Equilibrium dialysis compares concentrations on both sides of a semipermeable membrane.)
For series [3], the system named is Staphylococcus aureus. As to the kind of experiment: Antibacterial activity against methicillin-susceptible Staphylococcus aureus ATCC 29213 in peritoneal dialysis fluid at 50 ug/mL administered as bolus dose 2 hrs after infection measured after 24 hrs by time-kill study. Type of series: functional, organism-based.
In series [4] the test system is Staphylococcus aureus. As to the kind of experiment: Antibacterial activity against methicillin-resistant Staphylococcus aureus ATCC 33592 in peritoneal dialysis fluid at 10 ug/mL administered as bolus dose 2 hrs after infection measured after 24 hrs by time-kill study. The class given is functional, organism-based.
Series [5] has as its system Staphylococcus aureus. As to the kind of experiment: Antibacterial activity against methicillin-resistant Staphylococcus aureus ATCC 33592 in peritoneal dialysis fluid at 50 ug/mL administered as bolus dose 2 hrs after infection measured after 24 hrs by time-kill study. Type of series: functional, organism-based.
In series [6] the test system is Staphylococcus aureus. In words: Antibacterial activity against methicillin-susceptible Staphylococcus aureus ATCC 29213 in peritoneal dialysis fluid administered as bolus dose 2 hrs after infection measured after 24 hrs by broth dilution method. The class given is functional.
The subject of series [7] is Staphylococcus aureus. In words: Antibacterial activity against methicillin-resistant Staphylococcus aureus ATCC 33592 in peritoneal dialysis fluid administered as bolus dose 2 hrs after infection measured after 24 hrs by broth dilution method. The class given is functional. On the technique in general: Broth dilution looks for growth in wells or tubes with falling amounts of substance.

In the case of `CCCCCCCCCCNCCN[C@@]1(C)C[C@H](O[C@H]2[C@H](Oc3c4cc5cc3Oc3ccc(cc3Cl)[C@@H](O)[C@@H](NC(=O)[C@@H](CC(C)C)NC)C(=O)N[C@@H](CC(N)=O)C(=O)N[C@H]5C(=O)N[C@H]3C(=O)N[C@H](C(=O)N[C@H](C(=O)O)c5cc(O)c(CNCP(=O)(O)O)c(O)c5-c5cc3ccc5O)[C@H](O)c3ccc(c(Cl)c3)O4)O[C@H](CO)[C@@H](O)[C@@H]2O)O[C@@H](C)[C@H]1O` [TELAVANCIN], the outcome in the series on Staphylococcus aureus [1], in the series with Staphylococcus aureus [3], in the series with Staphylococcus aureus [4] and in the series on Staphylococcus aureus [5] was Active. In addition, the fraction unbound in series [2] is 0.05. Further, the MIC against Staphylococcus aureus [6] was 0.25 µg/mL (≈ 0.142 µM); with Staphylococcus aureus [7], 0.125 µg/mL (≈ 0.0712 µM).

In the case of `Cc1nnc(SCC2=C(C(=O)O)N3C(=O)[C@@H](NC(=O)Cn4cnnn4)[C@H]3SC2)s1` [CEFAZOLIN], the MIC is 0.5 µg/mL (≈ 1.1 µM) with Staphylococcus aureus [6] and above 16 µg/mL against Staphylococcus aureus [7].

What is called MIC is the least concentration at which growth counts as inhibited. Low values mean inhibition by little substance, high ones a need for much substance.
